Measurements as given in publication PMC9952435, “Characterization of Two Novel AmpC Beta-Lactamases from the Emerging Opportunistic Pathogen, Cedecea neteri” (Antibiotics, 2023).
Read-outs that look alike come from different tables or passages of the source.

Columns and labels:
[1] = system: rAmpC CNE-2 from C. neteri ATCC 33855; assay type: biochemical; conditions: for Km: Ki or Km,apparent, 200 µM nitrocefin reporter, 500 nM rAmpC, all standard deviations ≤15%
[2] = system: rAmpC CNE-2 from C. neteri ATCC 33855; assay type: biochemical; conditions: nitrocefin as substrate; 500 nM rAmpC, pH 7, 30 °C

| Compound | Km [1] [µM] | also measured |
| --- | --- | --- |
| CC1(C)S[C@@H]2[C@H](NC(=O)[C@H](N)c3ccccc3)C(=O)N2[C@H]1C(=O)O [Ampicillin, ampicillin] | 12 | – |
| Cc1nnc(SCC2=C(C(=O)O)N3C(=O)[C@@H](NC(=O)Cn4cnnn4)[C@H]3SC2)s1 [Cefazolin, cefazolin] | 100 | – |
| CO[C@@]1(NC(=O)Cc2cccs2)C(=O)N2C(C(=O)O)=C(COC(N)=O)CS[C@@H]21 [Cefoxitin, cefoxitin] | 54 | Km, fold higher than for CDA-1 from C. davisae ([1]; CNE-2 compared with CDA-1 (ref 13)): 100 fold |
| CO/N=C(\C(=O)N[C@@H]1C(=O)N2C(C(=O)O)=C(COC(N)=O)CS[C@H]12)c1ccco1 [Cefuroxime, cefuroxime] | 4 | – |
| CC1=C(C(=O)O)N2C(=O)[C@@H](NC(=O)[C@H](N)c3ccccc3)[C@H]2SC1 [Cephalexin, cephalexin] | 5 | – |
| C[C@@H](O)[C@H]1C(=O)N2C(C(=O)O)=C(SCCN=CN)C[C@H]12 [Imipenem, imipenem] | 2 | Km ([1]; listed as imipenem): ~2 µM |
| CC1(C)S[C@@H]2[C@H](NC(=O)Cc3ccccc3)C(=O)N2[C@H]1C(=O)O [Penicillin, penicillin] | 11 | – |
| O=C(Cc1cccs1)N[C@@H]1C(=O)N2C(C(=O)O)=C(/C=C/c3ccc([N+](=O)[O-])cc3[N+](=O)[O-])CS[C@H]12 [nitrocefin] | – | Km [2]: 133 ± 11 µM; kcat [2]: 3.13 ± 0.27 s⁻¹ |
